Tests used:
[1] = test system: synaptosomes from the striatal area of rat brain; assay: Dopamine release from striatal synaptosomes of rat brain; type: cell-based, rat (Sprague-Dawley); details: read-out: Dopamine Release (percent release relative to S(-)nicotine)
Protocol: Dopamine release was measured by preparing synaptosomes from the striatal area of rat brain generally obtained from Sprague-Dawley rats according to the procedures set forth by Nagy, et al., J. Neurochem., Vol. 43, pp. 1114-1123 (1984). Striata from 4 rats were homogenized in 2 ml of 0.32M sucrose buffered with 5 mM HEPES (pH 7.5), using a glass-teflon tissue grinder. The homogenate was diluted to 5 ml with additional homogenization solution and centrifuged at 1000×g for 10 min. This procedure was repeated on the new pellet and the resulting supernatant was centrifuged at 12,000×g for 20 min. […] Using this method, 30 to 90 percent of the dopamine was taken up into the synaptosomes, as determined by scintillation counting following filtration through glass fiber filters soaked with 0.5 percent polyethyleneimine. […] After the addition of a 0.2 ml of a 20 μM solution of ligand, the perfusate was collected into scintillation vials at 1 min. intervals and the dopamine released was quantified by scintillation counting. Peaks of radioactivity released above background were summed and the average basal release during that time was subtracted from the total. Release was expressed as a percentage of release obtained with an equal concentration of S(-)nicotine.

[2] = biological target: nicotinic receptors; assay: Inhibition of L-[^3 H] nicotine binding to mouse brain membrane preparations; design: species or system mouse (DBA strain); details: mouse brain membranes, 2 hr. incubation at 4° C., pH 7.5, racemic mixture of ligand
Protocol: Mice (DBA strain) were maintained on a 12 hour light/dark cycle and were allowed free access to water and food supplied by Wayne Lab Blox, Madison, Wis. Animals used in the present studies were 60 to 90 days of age and weighed 20 to 25 g. Brain membrane preparations were obtained from pooled brain tissue of both males and females.
Mice were killed by cervical dislocation. Brains were removed and placed on an ice-cold platform. […] Protein was determined by the method of Lowry, et al., J. Biol. Chem., Vol. 193, pp. 265-275 (1951), using bovine serum albumin as the standard.
The binding of L-[^3 H] nicotine was measured using a modification of the method of Romano, et al., Science, Vol. 210, pp. 647-650 (1980) as described previously by Marks, et al., Mol. Pharmacol., Vol. 30, pp. 427-436 (1986). The binding of L-[^3 H] nicotine was measured using a 2 hr. incubation at 4° C. […] Nonspecific binding was determined by inclusion of 10 μM nonradioactive nicotine in the incubations. The inhibition of L-[^3 H] nicotine binding by test compounds was determined by including one of eight different concentrations of the test compound in the incubation. […] Inhibition constants (Ki values) were calculated from the IC50 values using the method of Cheng, et al., Biochem. Pharmacol., Vol. 22, pp. 3099-3108 (1973).

Compound | Emax [1] [%] | Ki [2] [µM]
CC(=O)C1=CCC2CCC1N2C (stereo not shown) [Ferruginine, ferruginine] | 15 | 3.1 ± 0.5
CC(=O)C1=CCC2CCC1N2 (stereo not shown) [Norferruginine, norferruginine] | 25 | 1.1 ± 0.3

From US5288872A, “Compounds for treatment of neurodegenerative diseases” (priority 1992, dated 1994)
